Measurements reported in patent US20250360057A1, “ENHANCING DENTIN BONDING DURABILITY USING QUATERNARY PYRIDINIUM SALTS” (ADA Science and Research Institute LLC, priority 2022, published 2025).

Tests used:
Format in all cases: physicochemical
[1] = Degree of (vinyl) conversion (DC) of cured dental adhesive/resin by FT-IR (ATR); details: for Degree of Conversion: resin 70 wt % Bis-GMA / 30 wt % TEGDMA with CQ/4E; for change of Degree of Conversion (in words) / decrease of Degree of Conversion / increase of Degree of Conversion: versus resin without additive; for change of Degree of Conversion (in words) / decrease of Degree of Conversion: Bis-GMA/TEGDMA resin; for increase of Degree of Conversion: 70 wt % Bis-GMA / 30 wt % TEGDMA, CQ/4E; for Degree of Conversion (%): approx 0.25 wt % additive; for effect on DC (in words): both adhesives (SB and B6H4)
[2] = Glass transition temperature (Tg) / tan δ peak by dynamic mechanical analysis (DMA)
Description: The degree of conversion (DC) and glass transition temperature (Tg) of adhesives and resins with or without the additives (such as Azo-QPS-C16) were measured by Fourier transform infrared (FTIR) spectrometer and dynamic mechanical analyzer (DMA), respectively. The stability against enzymatic challenges of four adhesives (and resins) was evaluated using an atomic force microscopy (AFM)-based method. The adhesives' bonding strength and bonding durability are determined and compared based on shear bond strength (SBS), micro-tensile bond strength (pTBS), and bonding durability under the challenges of thermal cycling.
The glass transition temperature (Tg) of adhesives with or without additive were measured by dynamic mechanical analysis (DMA).

[3] = target: T1, pseudocholine esterase from equine serum (PCE) (Equus caballus, UniProt P81908); test: Biostability: AFM-based step height change (ΔH) under enzymatic challenge
T1 construct: pseudocholine esterase from equine serum; purchased Sigma C7512; host or cells: equine serum
Source text: Various embodiments of the present application can be better understood by reference to the following Examples which are offered by way of illustration. The scope of the present application is not limited to the Examples given herein. The enzymatic challenge measurement method described herein is described in Wang X, Song S, Chen L, Stafford CM, Sun J, Acta Biomater., 2018, 74, 326, and Yamauchi S, Wang X, Egusa H, Sun J. “High-performance dental adhesives containing an ether-based monomer” Journal of Dental Research, 2020, 99, 189, which are both incorporated by reference herein in their entireties.
Biostability of the dental materials such as resins and adhesives is of critical importance to their durability. These materials may break down in the oral environment, which may be due to enzymatic and/or bacterial challenges, which can result in failure of the restoration and secondary caries. The stability against enzymatic challenges of dental materials including adhesives and resins, with and without additives, was evaluated using an atomic force microscopy (AFM)-based method, described by Wang et al., in “Short-time dental resin biostability and kinetics of enzymatic degradation”, Acta Biomaterialia, Volume 74, 1 Jul. 2018, Pages 326-333, incorporated herein in its entirety. Briefly, this method allows evaluation of materials by assessing the step height (H) and the changes in the step height (ΔH), that are caused by enzymatic exposure. The ΔH values are caused as material exposed to salivary enzymes or the like is removed due to degradation of the exposed material.
The stability of SB was compared to the same adhesive incorporating Azo-QPS-C16 as an additive at approximately 0.25 wt %. Samples were prepared according to the method described by Wang, and were exposed to either pseudocholine esterase from equine serum (PCE, Product No. C7512, Sigma, Saint Louis, MO, USA) were reconstituted in saline solution containing 40 mM magnesium chloride and 99 mM of sodium chloride following vender's instruction, or a control solution without PCE for various times up to 72 hours. […] For the SB sample exposed to PCE, the ΔH value increased to about 175 nm. In comparison, the addition of approximately 0.25 wt % Azo-QPS-C16 reduced the ΔH values after 72 hours to about 50 nm and about 60 nm for the control and PCE-exposed samples, respectively, thus showing inclusion of Azo-QPC-C16 in the adhesive improved the stability dramatically.

[4] = target: T1, pseudocholine esterase from equine serum (PCE); test: as above; remark: listed apart in the source
[5] = B6H4, approximately 0.25 wt % additive

T1 sequence (P81908 whole entry): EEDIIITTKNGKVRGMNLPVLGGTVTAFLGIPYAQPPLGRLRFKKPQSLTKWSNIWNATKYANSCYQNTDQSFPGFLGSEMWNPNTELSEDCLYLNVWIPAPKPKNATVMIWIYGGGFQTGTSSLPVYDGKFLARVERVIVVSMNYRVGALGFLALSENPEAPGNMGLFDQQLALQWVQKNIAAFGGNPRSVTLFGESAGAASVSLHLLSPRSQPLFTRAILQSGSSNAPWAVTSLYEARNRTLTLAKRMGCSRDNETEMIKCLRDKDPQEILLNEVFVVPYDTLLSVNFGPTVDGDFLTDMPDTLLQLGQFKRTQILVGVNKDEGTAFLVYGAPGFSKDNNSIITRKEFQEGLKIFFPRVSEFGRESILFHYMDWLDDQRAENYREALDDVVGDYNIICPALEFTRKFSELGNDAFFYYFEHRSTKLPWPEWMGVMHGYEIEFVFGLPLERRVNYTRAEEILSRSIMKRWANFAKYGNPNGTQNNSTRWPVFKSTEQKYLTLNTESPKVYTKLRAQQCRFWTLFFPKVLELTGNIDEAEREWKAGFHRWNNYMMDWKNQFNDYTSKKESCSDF

SMILES: C=C(C)C(=O)Oc1ccc(/N=N/c2ccncc2)cc1 [Azo-Py-MA, reference compound]
- Degree of Conversion ([1]; 0.5 wt % additive): 70.2%
- change of Degree of Conversion (in words) [1]: no change

SMILES: Oc1ccc(/N=N/c2ccncc2)cc1 [Azo-Py-OH, reference compound]
- Degree of Conversion ([1]; 0.5 wt % additive): 68.4%
- decrease of Degree of Conversion [1]: 1.8%

SMILES: CC(C)C(=O)Oc1ccc(/N=N/c2ccncc2)cc1 [Azo-Py-iBu, (E)-4-(pyridin-4-yldiazenyl)phenyl isobutyrate, reference compound]
- Degree of Conversion ([1]; 0.5 wt % additive): 66.7%
- decrease of Degree of Conversion [1]: 3.5%

SMILES: C=C(C)C(=O)Oc1ccc(/N=N/c2cc[n+](CC)cc2)cc1.[Br-] [Azo-QPS-C2-MA]
- Degree of Conversion ([1]; 0.5 wt % additive): 72.3%
- increase of Degree of Conversion ([1]; 0.5 wt % additive): 2.1%

SMILES: C=C(C)C(=O)Oc1ccc(/N=N/c2cc[n+](CCCCCCCCCCCCCCCC)cc2)cc1.[Br-] [Azo-QPS-C16, (E)-1-hexadecyl-4-((4-(methacryloyloxy)phenyl)diazenyl)-pyridinium bromide]
- DC (%) ([1]; B6H4/CQ/4E, 0.1 wt % additive): 76.9 ± 0.7%
- DC (%) ([1]; B6H4/CQ/4E, 0.25 wt % additive): 79.5 ± 0.8%
- DC (%) ([1]; B6H4/CQ/4E, 0.5 wt % additive): 80.5 ± 1.2%
- DC (%) ([1]; B6H4/CQ/4E, 1.0 wt % additive): 81.3 ± 1.4%
- DC (%) ([1]; B6H4/CQ/4E, 1.25 wt % additive): 76.2 ± 1.5%
- DC (%) ([1]; B6H4/CQ/4E, 1.5 wt % additive): 64.4 ± 2.2%
- DC (%) ([1]; B6H4/CQ/4E, 2.0 wt % additive): 26.0 ± 2.6%
- Degree of Conversion (%) ([1]; EBSE adhesive): 73.7 ± 0.6%
- Degree of Conversion (%) ([1]; PBNT adhesive): 66.4 ± 0.7%
- Degree of Conversion (%) ([1]; SBP adhesive): 70.3 ± 0.5%
- Degree of Conversion (%) ([1]; SUP adhesive): 72.5 ± 1.0%
- DC (%) ([1]; Scotchbond Multi-Purpose (SB), 0.1 wt % additive): 76.1 ± 0.8%
- DC (%) ([1]; Scotchbond Multi-Purpose (SB), 0.25 wt % additive): 78.6 ± 0.9%
- DC (%) ([1]; Scotchbond Multi-Purpose (SB), 0.5 wt % additive): 79.2 ± 1.1%
- DC (%) ([1]; Scotchbond Multi-Purpose (SB), 1.0 wt % additive): 79.5 ± 1.4%
- DC (%) ([1]; Scotchbond Multi-Purpose (SB), 1.25 wt % additive): 75.5 ± 1.5%
- DC (%) ([1]; Scotchbond Multi-Purpose (SB), 1.5 wt % additive): 55.0 ± 1.4%
- DC (%) ([1]; Scotchbond Multi-Purpose (SB), 2.0 wt % additive): 12.8 ± 3.1%
- Degree of Conversion (%) ([1]; XIV adhesive): 74.2 ± 1.1%
- effect on DC (in words) ([1]; approximately 0.1 wt % additive): enhances the DC of both adhesives
- effect on DC (in words) ([1]; more than approximately 1.25 wt % additive (about 1.5 or 2 wt %)): significant DC decrease
- Degree of Conversion ([1]; 0.5 wt % additive): 74.5%
- increase of Degree of Conversion ([1]; 0.5 wt % additive): 4.3%
- glass transition temperature (Tg) [2, 5]: increases
- tan δ peak [2, 5]: narrowed
- tan δ peak ([2]; SB, approximately 0.25 wt % additive): narrowed
- ΔH ([3]; SB, approximately 0.25 wt % additive, PCE-exposed, after 72 hours): about 60 nm
- ΔH ([3]; SB, approximately 0.25 wt % additive, control solution without PCE, after 72 hours): about 50 nm
- ΔH ([4]; B6H4 with CQ/4E, approximately 0.25 wt % additive, control, after 72 hours): about 50 nm
- ΔH ([4]; B6H4 with CQ/4E, approximately 0.25 wt % additive, exposed to PCE, after 72 hours): about 70 nm
- effect on ΔH values (in words) ([4]; adhesives PBNT, SBP, SUP, EBSE and XIV, approximately 0.25 wt % additive versus no additive (FIGS. 8-12)): decreased the ΔH values

SMILES: CC(C)C(=O)Oc1ccc(/N=N/c2cc[n+](CCCCCBr)cc2)cc1.[Br-] [Br-C6-Azo-Py-iBu]
- Degree of Conversion ([1]; 0.5 wt % additive): 75.1%
- increase of Degree of Conversion ([1]; 0.5 wt % additive): 4.9%

SMILES: C=C(C)C(=O)OCCCCCC[n+]1ccc(/N=N/c2ccc(OC(=O)C(C)C)cc2)cc1.[Br-] [MA-C6-Azo-Py-iBu]
- Degree of Conversion ([1]; 0.5 wt % additive): 74.9%
- increase of Degree of Conversion ([1]; 0.5 wt % additive): 4.7%
- ΔH ([3]; Scotchbond (SB), PCE (FIG. 7)): ~70 nm
- ΔH ([3]; Scotchbond (SB), control (FIG. 7)): approximately 50 nm
- ΔH ([4]; B6H4, approximately 0.25 wt % additive, PCE (FIG. 6)): ~65 nm
- ΔH ([4]; B6H4, approximately 0.25 wt % additive, control (FIG. 6)): approximately 50 nm

SMILES: C=C(C)C(=O)OCCNC(=O)OCCCCCCCC[n+]1ccc(/N=N/c2ccc(OC(=O)C(C)C)cc2)cc1.[Br-] [MA-CB13-Azo-QPS-iBu]
- Degree of Conversion ([1]; 0.5 wt % additive): 70.7%
- increase of Degree of Conversion ([1]; 0.5 wt % additive): 0.5%
- biostability of the adhesives (in words) ([3]; added to dental adhesives): has not been demonstrated to improve the biostability

SMILES: c1ccc(/N=N/c2ccccc2)cc1 [reference compound]
- change of Degree of Conversion (in words) [1]: No change

SMILES: c1cc(N=Nc2ccncc2)ccn1 [reference compound]
- change of Degree of Conversion (in words) [1]: No change

SMILES: c1cc(CCc2ccncc2)ccn1 [reference compound]
- change of Degree of Conversion (in words) [1]: No change
